From publication PMC5218480 (PLoS ONE, 2017)

System: MV-4-11 cells
Experiment: Gene expression microarray analysis (Affymetrix PrimeView) and GSEA
Type: cell-based, human
Design: RFU PODN (11730768_x_at) / Fold change /veh PODN (11730768_x_at) / RFU LINC00158 (11744669_a_at) / Fold change /veh LINC00158 (11744669_a_at) / RFU DUSP10 (11751237_a_at) / Fold change /veh DUSP10 (11751237_a_at) / RFU ID3 (11757404_x_at) / Fold change /veh ID3 (11757404_x_at) / RFU PLEKHG5 (11737974_s_at) / Fold change /veh PLEKHG5 (11737974_s_at) / RFU LRRC4B (11730491_at) / Fold change /veh LRRC4B (11730491_at) / RFU GIMAP4 (11747438_a_at) / Fold change /veh GIMAP4 (11747438_a_at) / RFU KRT8 (11758183_x_at) / Fold change /veh KRT8 (11758183_x_at) / RFU CNN1 (11734310_a_at) / Fold change /veh CNN1 (11734310_a_at) / RFU VPS37D (11726825_at) / Fold change /veh VPS37D (11726825_at) / RFU C10orf10 (11716522_x_at) / Fold change /veh C10orf10 (11716522_x_at) / RFU KIR2DL2 /// KIR2DL4 /// KIR2DL5A /// KIR2DL5B /// KIR2DS1 /// KIR2DS2 /// KIR2DS3 /// KIR2DS4 /// KIR3DL3 /// KIR3DL3 /// KIR3DS1 (11738374_at) / Fold change /veh KIR2DL2 /// KIR2DL4 /// KIR2DL5A /// KIR2DL5B /// KIR2DS1 /// KIR2DS2 /// KIR2DS3 /// KIR2DS4 /// KIR3DL3 /// KIR3DL3 /// KIR3DS1 (11738374_at) / RFU C1QL1 (11718748_at) / Fold change /veh C1QL1 (11718748_at) / RFU TMPRSS4 (11747572_a_at) / Fold change /veh TMPRSS4 (11747572_a_at) / RFU HAMP (11756126_x_at) / Fold change /veh HAMP (11756126_x_at) / RFU RNFT2 (11725882_a_at) / Fold change /veh RNFT2 (11725882_a_at) / RFU NR4A2 (11747474_a_at) / Fold change /veh NR4A2 (11747474_a_at) / RFU ABCC12 (11746883_a_at) / Fold change /veh ABCC12 (11746883_a_at) / RFU TMEM136 (11760407_x_at) / Fold change /veh TMEM136 (11760407_x_at) / RFU CLDN22 /// WWC2 (11732394_at) / Fold change /veh CLDN22 /// WWC2 (11732394_at) / RFU HLA-DPB1 (11760878_x_at) / Fold change /veh HLA-DPB1 (11760878_x_at) / RFU SPINT1 (11716480_a_at) / Fold change /veh SPINT1 (11716480_a_at) / RFU GAP43 (11754022_s_at) / Fold change /veh GAP43 (11754022_s_at) / RFU A4GNT (11735810_at) / Fold change /veh A4GNT (11735810_at) / RFU PRB3 (11715151_x_at) / Fold change /veh PRB3 (11715151_x_at) / RFU TUBB4B (11761932_at) / Fold change /veh TUBB4B (11761932_at) / RFU CAPN14 (11732068_a_at) / Fold change /veh CAPN14 (11732068_a_at) / RFU TMCC2 (11721928_a_at) / Fold change /veh TMCC2 (11721928_a_at) / RFU IRGQ (11745062_a_at) / Fold change /veh IRGQ (11745062_a_at) / RFU FAM174B (11720279_a_at) / Fold change /veh FAM174B (11720279_a_at) / RFU TMPRSS4 (11748680_a_at) / Fold change /veh TMPRSS4 (11748680_a_at) / RFU FAM212B (11763350_a_at) / Fold change /veh FAM212B (11763350_a_at) / RFU PLEKHG5 (11743358_a_at) / Fold change /veh PLEKHG5 (11743358_a_at) / RFU ZSCAN30 (11745921_a_at) / Fold change /veh ZSCAN30 (11745921_a_at) / RFU CMKLR1 (11741424_a_at) / Fold change /veh CMKLR1 (11741424_a_at) / RFU LOC101060620 /// MAPK8IP1 (11723275_at) / Fold change /veh LOC101060620 /// MAPK8IP1 (11723275_at) / RFU SPTSSB (11747773_x_at) / Fold change /veh SPTSSB (11747773_x_at) / RFU PRSS12 (11739890_at) / Fold change /veh PRSS12 (11739890_at) / RFU BIN1 (11741810_x_at) / Fold change /veh BIN1 (11741810_x_at) / RFU WNT11 (11732464_a_at) / Fold change /veh WNT11 (11732464_a_at) / RFU C10orf10 (11716521_a_at) / Fold change /veh C10orf10 (11716521_a_at) / RFU C5orf56 (11738089_at) / Fold change /veh C5orf56 (11738089_at) / RFU CYB561 (11721691_x_at) / Fold change /veh CYB561 (11721691_x_at) / RFU ANKRD19P (11752326_a_at) / Fold change /veh ANKRD19P (11752326_a_at) / RFU OR2T12 /// OR2T33 /// OR2T8 (11738714_s_at) / Fold change /veh OR2T12 /// OR2T33 /// OR2T8 (11738714_s_at) / RFU VCAN (11748164_a_at) / Fold change /veh VCAN (11748164_a_at) / RFU JSRP1 (11732532_at) / Fold change /veh JSRP1 (11732532_at) / RFU KRTAP10-11 (11738290_x_at) / Fold change /veh KRTAP10-11 (11738290_x_at) / RFU MYO3A (11730013_a_at) / Fold change /veh MYO3A (11730013_a_at) / RFU EBF3 (11725865_a_at) / Fold change /veh EBF3 (11725865_a_at) / RFU CAMK2N1 (11719241_x_at) / Fold change /veh CAMK2N1 (11719241_x_at) / RFU C5orf56 (11738088_a_at) / Fold change /veh C5orf56 (11738088_a_at) / RFU OLFML3 (11715873_a_at) / Fold change /veh OLFML3 (11715873_a_at) / RFU LOC100653217 /// NTM (11731650_a_at) / Fold change /veh LOC100653217 /// NTM (11731650_a_at) / RFU MAPK11 (11762145_a_at) / Fold change /veh MAPK11 (11762145_a_at) / RFU FIZ1 (11724087_x_at) / Fold change /veh FIZ1 (11724087_x_at) / RFU OASL (11726364_x_at) / Fold change /veh OASL (11726364_x_at) / RFU SOX15 (11748057_x_at) / Fold change /veh SOX15 (11748057_x_at) / RFU CD79A (11719716_a_at) / Fold change /veh CD79A (11719716_a_at) / RFU HIST1H1D (11736915_at) / Fold change /veh HIST1H1D (11736915_at) / RFU CASKIN2 (11723855_a_at) / Fold change /veh CASKIN2 (11723855_a_at) / RFU LOC730098 (11760151_x_at) / Fold change /veh LOC730098 (11760151_x_at) / RFU OR4N2 (11742367_at) / Fold change /veh OR4N2 (11742367_at) / RFU PRRT2 (11749266_a_at) / Fold change /veh PRRT2 (11749266_a_at) / RFU SNX32 (11753110_a_at) / Fold change /veh SNX32 (11753110_a_at) / RFU CDHR5 (11726645_a_at) / Fold change /veh CDHR5 (11726645_a_at) / RFU RCAN1 (11760418_a_at) / Fold change /veh RCAN1 (11760418_a_at) / RFU FAM167A (11723789_a_at) / Fold change /veh FAM167A (11723789_a_at) / RFU FAM26E (11764081_at) / Fold change /veh FAM26E (11764081_at) / RFU ISYNA1 (11749810_s_at) / Fold change /veh ISYNA1 (11749810_s_at) / RFU ACY1 (11761880_at) / Fold change /veh ACY1 (11761880_at) / RFU 11764098_at / Fold change /veh 11764098_at / RFU SAMD14 (11745864_x_at) / Fold change /veh SAMD14 (11745864_x_at) / RFU NPB (11741838_a_at) / Fold change /veh NPB (11741838_a_at) / RFU TMPRSS6 (11731388_a_at) / Fold change /veh TMPRSS6 (11731388_a_at) / RFU KRTAP10-2 (11738614_at) / Fold change /veh KRTAP10-2 (11738614_at) / RFU ARHGAP8 /// PRR5-ARHGAP8 (11727945_x_at) / Fold change /veh ARHGAP8 /// PRR5-ARHGAP8 (11727945_x_at) / RFU KRTAP5-7 /// NADSYN1 (11734609_at) / Fold change /veh KRTAP5-7 /// NADSYN1 (11734609_at) / RFU RASL12 (11751679_a_at) / Fold change /veh RASL12 (11751679_a_at) / RFU CDKN2B (11736163_a_at) / Fold change /veh CDKN2B (11736163_a_at) / RFU PRF1 (11729649_at) / Fold change /veh PRF1 (11729649_at) / RFU, ZNF638 /// ZNF638-IT1 / Fold change vs veh, ZNF638 /// ZNF638-IT1 / RFU, PANK3 / Fold change vs veh, PANK3 / RFU, SH3YL1 / Fold change vs veh, SH3YL1 / RFU, ZEB2 / Fold change vs veh, ZEB2 / RFU, NRIP1 / Fold change vs veh, NRIP1 / RFU, PTTG1IP / Fold change vs veh, PTTG1IP / RFU, CAPN2 / Fold change vs veh, CAPN2 / RFU, MED14 / Fold change vs veh, MED14 / RFU, SNORA58 / Fold change vs veh, SNORA58 / RFU, C1orf63 / Fold change vs veh, C1orf63 / RFU, LRRFIP1 / Fold change vs veh, LRRFIP1 / RFU, NDUFAF7 / Fold change vs veh, NDUFAF7 / RFU, SLC12A2 / Fold change vs veh, SLC12A2 / RFU, IBTK / Fold change vs veh, IBTK / RFU, ESF1 / Fold change vs veh, ESF1 / Fold change vs veh, TMEM50B / RFU, TAOK1 / Fold change vs veh, TAOK1 / RFU, ACBD3 / Fold change vs veh, ACBD3 / RFU, TMA16 / Fold change vs veh, TMA16 / RFU, RWDD3 / Fold change vs veh, RWDD3 / RFU, BCAT1 / Fold change vs veh, BCAT1 / RFU, EDEM3 / Fold change vs veh, EDEM3 / RFU, TMEM33 / Fold change vs veh, TMEM33 / RFU, WDR75 / Fold change vs veh, WDR75 / RFU, AHCTF1 / Fold change vs veh, AHCTF1 / RFU, TFRC / Fold change vs veh, TFRC / RFU, ZDHHC17 / Fold change vs veh, ZDHHC17 / RFU, NOM1 / Fold change vs veh, NOM1 / RFU, ARL8B / Fold change vs veh, ARL8B / RFU, ZBTB11 / Fold change vs veh, ZBTB11 / RFU, TAMM41 / Fold change vs veh, TAMM41 / RFU, KIAA1704 /// LOC100996395 / Fold change vs veh, KIAA1704 /// LOC100996395 / RFU, ING1 / Fold change vs veh, ING1 / RFU, TRMT61B / Fold change vs veh, TRMT61B / RFU, FUBP3 / Fold change vs veh, FUBP3 / RFU, TP53 / Fold change vs veh, TP53 / RFU, TNKS2 / Fold change vs veh, TNKS2 / RFU, ZFP14 / Fold change vs veh, ZFP14 / RFU, ACTR2 / Fold change vs veh, ACTR2 / RFU, PPP3R1 / Fold change vs veh, PPP3R1 / RFU, PIK3R1 / Fold change vs veh, PIK3R1 / RFU, HNRNPA1 / Fold change vs veh, HNRNPA1 / RFU, RNF170 / Fold change vs veh, RNF170 / RFU, ZNF28 / Fold change vs veh, ZNF28 / RFU, RNGTT / Fold change vs veh, RNGTT / RFU, OGT / Fold change vs veh, OGT / RFU, BRD1 / Fold change vs veh, BRD1 / RFU, MARS / Fold change vs veh, MARS / RFU, ZNF655 / Fold change vs veh, ZNF655 / RFU, FAHD1 / Fold change vs veh, FAHD1 / RFU, BDP1 / Fold change vs veh, BDP1 / RFU, LRRCC1 / Fold change vs veh, LRRCC1 / RFU, ARID1A / Fold change vs veh, ARID1A / RFU, ZNF146 / Fold change vs veh, ZNF146 / RFU, ZNF330 / Fold change vs veh, ZNF330 / RFU, GPN3 / Fold change vs veh, GPN3 / RFU, C9orf123 / Fold change vs veh, C9orf123 / RFU, N4BP2L2 / Fold change vs veh, N4BP2L2 / RFU, ARFIP1 / Fold change vs veh, ARFIP1 / RFU, FAM179B / Fold change vs veh, FAM179B / RFU, BCL10 / Fold change vs veh, BCL10 / RFU, UHRF1BP1L / Fold change vs veh, UHRF1BP1L / RFU, BET1 / Fold change vs veh, BET1 / RFU, CNOT2 / Fold change vs veh, CNOT2 / RFU, ZNF268 / Fold change vs veh, ZNF268 / Fold change vs veh, ZNF507 / RFU, DGCR2 / Fold change vs veh, DGCR2 / RFU, WDSUB1 / Fold change vs veh, WDSUB1 / Fold change vs veh, HSP90B1 /// MIR3652 / RFU, ADSS / Fold change vs veh, ADSS / RFU, GK / Fold change vs veh, GK / RFU, ZNF148 / Fold change vs veh, ZNF148 / RFU, TAF9 / Fold change vs veh, TAF9 / RFU, SLC1A5 / Fold change vs veh, SLC1A5 / RFU, SLMO2 / Fold change vs veh, SLMO2 / RFU, ABCC4 / Fold change vs veh, ABCC4 / RFU, LOC101060439 /// RAP1B / Fold change vs veh, LOC101060439 /// RAP1B / RFU, RFX7 / Fold change vs veh, RFX7 / RFU, GTPBP10 / Fold change vs veh, GTPBP10 / RFU, CNEP1R1 / Fold change vs veh, CNEP1R1 / RFU, BIVM-ERCC5 /// ERCC5 / Fold change vs veh, BIVM-ERCC5 /// ERCC5 / RFU, ILF3 / Fold change vs veh, ILF3 / RFU 11762660_at / Fold change /veh 11762660_at / RFU VCAN (11757783_s_at) / Fold change /veh VCAN (11757783_s_at) / RFU DDX43 (11728927_at) / Fold change /veh DDX43 (11728927_at) / RFU KRT8 (11758188_x_at) / Fold change /veh KRT8 (11758188_x_at) / RFU NKD1 (11759106_at) / Fold change /veh NKD1 (11759106_at) / RFU SRD5A1 (11742802_a_at) / Fold change /veh SRD5A1 (11742802_a_at) / RFU TPSAB1 /// TPSB2 (11721975_s_at) / Fold change /veh TPSAB1 /// TPSB2 (11721975_s_at) / RFU GSTM3 (11746129_a_at) / Fold change /veh GSTM3 (11746129_a_at) / RFU IL23R (11737362_x_at) / Fold change /veh IL23R (11737362_x_at) / RFU TMEM51 (11727254_a_at) / Fold change /veh TMEM51 (11727254_a_at) / RFU PIWIL2 (11732686_x_at) / Fold change /veh PIWIL2 (11732686_x_at) / RFU ORM1 (11744905_x_at) / Fold change /veh ORM1 (11744905_x_at) / RFU CCDC152 (11743942_at) / Fold change /veh CCDC152 (11743942_at) / RFU ECM1 (11717891_a_at) / Fold change /veh ECM1 (11717891_a_at) / RFU IL23R (11748794_a_at) / Fold change /veh IL23R (11748794_a_at) / RFU TNFAIP8L3 (11732012_x_at) / Fold change /veh TNFAIP8L3 (11732012_x_at) / RFU MBOAT4 (11741988_at) / Fold change /veh MBOAT4 (11741988_at) / RFU 11764193_at / Fold change /veh 11764193_at / RFU TMEM53 (11763286_at) / Fold change /veh TMEM53 (11763286_at) / RFU MAGEB2 (11727129_at) / Fold change /veh MAGEB2 (11727129_at) / RFU TMEM200A (11744735_a_at) / Fold change /veh TMEM200A (11744735_a_at) / RFU CCDC152 (11751479_a_at) / Fold change /veh CCDC152 (11751479_a_at) / RFU FAM211A (11726209_a_at) / Fold change /veh FAM211A (11726209_a_at) / RFU RGS16 (11746705_a_at) / Fold change /veh RGS16 (11746705_a_at) / RFU VCAN (11755009_s_at) / Fold change /veh VCAN (11755009_s_at) / RFU RHOB (11743442_s_at) / Fold change /veh RHOB (11743442_s_at) / RFU RGS16 (11720943_a_at) / Fold change /veh RGS16 (11720943_a_at) / RFU RGS16 (11720944_at) / Fold change /veh RGS16 (11720944_at) / RFU, VPS4B / Fold change vs veh, VPS4B / RFU, CREB1 / Fold change vs veh, CREB1 / RFU, DNAJC13 / Fold change vs veh, DNAJC13 / RFU, GNAQ / Fold change vs veh, GNAQ / RFU, CDK5R1 / Fold change vs veh, CDK5R1 / RFU, ZRANB3 / Fold change vs veh, ZRANB3 / RFU, CUL4A / Fold change vs veh, CUL4A / RFU, CCNY / Fold change vs veh, CCNY / RFU, UFL1 / Fold change vs veh, UFL1 / RFU, COG3 / Fold change vs veh, COG3 / RFU, DIAPH2 / Fold change vs veh, DIAPH2 / RFU, SKA2 / Fold change vs veh, SKA2 / RFU, AFF3 / Fold change vs veh, AFF3 / RFU, LMF1 / Fold change vs veh, LMF1 / RFU, IPO11 / Fold change vs veh, IPO11 / RFU, DFFB / Fold change vs veh, DFFB / RFU, FOXP1 / Fold change vs veh, FOXP1 / RFU, CARD8 / Fold change vs veh, CARD8 / RFU, STRN3 / Fold change vs veh, STRN3 / RFU, ADK / Fold change vs veh, ADK / RFU, RASSF2 / Fold change vs veh, RASSF2 / RFU, WIPF1 / Fold change vs veh, WIPF1 / RFU, LARP1B / Fold change vs veh, LARP1B / RFU, RASA1 / Fold change vs veh, RASA1 / RFU, RB1 / Fold change vs veh, RB1 / RFU, PPFIA1 / Fold change vs veh, PPFIA1 / RFU, MAT2A / Fold change vs veh, MAT2A / RFU, CCT5 / Fold change vs veh, CCT5 / RFU, WDR92 / Fold change vs veh, WDR92 / RFU, CUX1 / Fold change vs veh, CUX1 / RFU, TTC7A / Fold change vs veh, TTC7A / RFU, TMEM135 / Fold change vs veh, TMEM135 / RFU, DEPTOR / Fold change vs veh, DEPTOR / RFU, CPM / Fold change vs veh, CPM / RFU, DNAJB6 / Fold change vs veh, DNAJB6 / RFU, CACNA2D3 / Fold change vs veh, CACNA2D3 / RFU, DTX4 / Fold change vs veh, DTX4 / RFU, TFCP2 / Fold change vs veh, TFCP2 / RFU, GMCL1 /// GMCL1P1 / Fold change vs veh, GMCL1 /// GMCL1P1 / RFU, AEBP2 / Fold change vs veh, AEBP2 / RFU, SNHG1 /// SNORD22 /// SNORD25 /// SNORD26 /// SNORD27 /// SNORD28 /// SNORD29 /// SNORD31 / Fold change vs veh, SNHG1 /// SNORD22 /// SNORD25 /// SNORD26 /// SNORD27 /// SNORD28 /// SNORD29 /// SNORD31 / Fold change (Aza/veh), C12orf56 (ProbeSet 11735607_a_at) / Fold change (ACY-1035/veh), C12orf56 (ProbeSet 11735607_a_at) / Fold change (Aza/veh), FGFR1OP (ProbeSet 11751329_s_at) / Fold change (ACY-1035/veh), FGFR1OP (ProbeSet 11751329_s_at) / Fold change (Aza/veh), VPS36 (ProbeSet 11739960_a_at) / Fold change (ACY-1035/veh), VPS36 (ProbeSet 11739960_a_at) / RFU SYPL1 (11715823_x_at) / Fold change /veh SYPL1 (11715823_x_at) / RFU IGFBP7 (11715501_s_at) / Fold change /veh IGFBP7 (11715501_s_at) / RFU REEP3 (11722064_at) / Fold change /veh REEP3 (11722064_at) / RFU IGLL1 (11728026_x_at) / Fold change /veh IGLL1 (11728026_x_at): dose or concentration left out as unconfirmed
Details: ProbeSet 11759094_a_at; LIST D

Nc1ncn([C@@H]2O[C@H](CO)[C@@H](O)[C@H]2O)c(=O)n1 [azacitidine]
RFU, GNAQ: 421.57 RFU
